Columns and labels:
[1] = Dynamic Vapour Sorption (DVS) analysis; format: physicochemical; conditions: 25° C., first cycle
Method: (§1) As used herein, DVS means Dynamic Vapour Sorption Analysis. Unless stated otherwise, DVSs were performed according to the following equipment and conditions: DVS-1000 instrument by Surface Measurement Systems was used. Samples were prepared by transferring them into an aluminum crucible and loading this into the DVS. A method utilizing two cycles (0% to 90% RH) and (90% to 0% RH) was run. The equilibrium condition for each step was set to a mass constancy of ±0.001% over 60 min and a maximum time limit of 1440 min for each step. This method was undertaken at 25° C.

[2] = Stability against temperature stress as indicated by DSC and DVS data; format: physicochemical
Method: as §1, with “C. As used herein, DSC means Differential Scanning calorimetry Analysis. Unless stated otherwise, DSCs were performed according to the following equipment and conditions: DSC 822e Mettler Toledo. Crucible: Aluminum crucible with a capacity of 40 μL and with hole the lid. Gas: Dry nitrogen 50 mL/min. Method standard: Heating from 30° C. to 300° C. at a rate of 10° C./min.” for “C.”

Substance	polymorphic change associated with the sorption/desorption phenomenon in DVS, based on XRPD analysis ([1]; 70-80% relative humidity)	water sorption by the sample (DVS) ([1]; at 70% relative humidity)	water desorption by the sample (DVS) ([1]; at 80% relative humidity) [%]	water sorption by the sample (DVS) ([1]; at 90% relative humidity)	stability against temperature stress for formulation into an oral solid dosage form [2]
valbenazine ditosylate [Form D]	transformation to polymorphic form II	approximately 6.0%	4.0		
valbenazine ditosylate [Form E]				approximately 1.4%	stable against temperature stress
